Assay [1] has as its target T1, hSERT (Homo sapiens, UniProt P31645). As to the kind of experiment: hSERT neurotransmitter uptake assay (3H-5-HT), Assay 2. In kind it is cell-based. On the set-up: expressed in transfected cells; host or cells: HEK-293. The settings on record: serotonin reuptake inhibition, 3H-5-HT uptake, HEK-293 hSERT cells (values without asterisk); read-out: SERT pIC50 (converted).

The target in assay [2] is T2, hNET (Homo sapiens, UniProt P23975). The experiment in a line: hNET neurotransmitter uptake assay (3H-NE), Assay 2. In kind it is cell-based. On the set-up: expressed in transfected cells; host or cells: HEK-293. The following applies: norepinephrine reuptake inhibition, 3H-NE uptake, HEK-293 hNET cells (values without asterisk); read-out: NET pIC50 (converted).
Assay [3] deals with T2, hNET. As to the kind of experiment: hNET membrane radioligand binding assay (3H-nisoxetine), Assay 1.
For assay [4], the target named is T1, hSERT. The experiment in a line: hSERT membrane radioligand binding assay (3H-citalopram), Assay 1. The following applies: SERT pKi, hSERT HEK-293 membranes, 1.0 nM 3H-citalopram; values given as lower bounds.

From patent publication US7994209B2, “3-phenoxymethylpyrrolidine compounds” (Theravance, Inc., priority 2009, dated 2011) come the findings set out here.

Each structure is given as a SMILES string. Bounds are passed on as bounds.

T1 sequence (P31645 whole entry): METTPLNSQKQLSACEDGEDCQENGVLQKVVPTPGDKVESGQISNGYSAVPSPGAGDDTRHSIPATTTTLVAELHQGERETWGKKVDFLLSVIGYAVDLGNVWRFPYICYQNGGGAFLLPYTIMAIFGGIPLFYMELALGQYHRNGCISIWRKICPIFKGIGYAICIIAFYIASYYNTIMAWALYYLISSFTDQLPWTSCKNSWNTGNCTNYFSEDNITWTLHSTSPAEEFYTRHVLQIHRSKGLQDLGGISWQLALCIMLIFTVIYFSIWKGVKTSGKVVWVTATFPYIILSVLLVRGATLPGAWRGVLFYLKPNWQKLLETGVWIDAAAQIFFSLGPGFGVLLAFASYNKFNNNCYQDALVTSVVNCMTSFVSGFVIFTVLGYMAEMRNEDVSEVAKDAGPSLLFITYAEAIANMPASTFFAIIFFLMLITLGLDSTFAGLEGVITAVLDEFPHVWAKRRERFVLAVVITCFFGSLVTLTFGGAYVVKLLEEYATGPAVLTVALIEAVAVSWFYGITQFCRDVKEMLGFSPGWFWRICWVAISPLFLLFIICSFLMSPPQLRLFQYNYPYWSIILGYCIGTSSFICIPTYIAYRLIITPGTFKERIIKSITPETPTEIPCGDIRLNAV
T2 sequence (P23975 whole entry): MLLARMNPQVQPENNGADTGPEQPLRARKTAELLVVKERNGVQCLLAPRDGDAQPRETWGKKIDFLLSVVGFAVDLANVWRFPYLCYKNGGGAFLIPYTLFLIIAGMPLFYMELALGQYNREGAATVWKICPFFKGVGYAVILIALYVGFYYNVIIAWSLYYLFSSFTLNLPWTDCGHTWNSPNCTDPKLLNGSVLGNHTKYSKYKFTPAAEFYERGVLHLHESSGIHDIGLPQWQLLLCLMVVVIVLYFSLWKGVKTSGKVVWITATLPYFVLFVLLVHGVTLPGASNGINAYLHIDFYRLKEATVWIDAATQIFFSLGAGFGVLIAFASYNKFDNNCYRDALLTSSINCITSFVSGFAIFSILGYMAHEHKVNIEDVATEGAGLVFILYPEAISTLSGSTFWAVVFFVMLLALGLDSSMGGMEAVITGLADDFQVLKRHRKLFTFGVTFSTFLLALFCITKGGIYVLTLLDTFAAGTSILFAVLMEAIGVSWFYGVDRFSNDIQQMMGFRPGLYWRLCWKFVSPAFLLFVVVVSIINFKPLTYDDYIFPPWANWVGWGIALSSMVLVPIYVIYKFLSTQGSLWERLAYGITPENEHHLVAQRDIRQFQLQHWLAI

Take `CC(C)CC(Oc1c(F)ccc(Cl)c1Cl)C1CCNC1` (centres unmarked) [Example 10-64, 3-[1(2,3-Dichloro-6-fluorophenoxy)-3-methylbutyl]pyrrolidine]: the IC50 in assay [1] and in assay [2] was no more than 0.01 µM throughout. In addition, the inhibitory constant (Ki) in assay [3] and in assay [4] was no more than 0.01 µM in each case.
Take `CC(C)CC(Oc1ccc(Cl)cc1)C1CCNC1` (centres unmarked) [Example 10-10, 3-[1-(4-Chlorophenoxy)-3-methylbutyl]pyrrolidine]: the IC50 in assay [1] and in assay [2] was no more than 0.01 µM in each case. The Ki in assay [3] and in assay [4] was no more than 0.01 µM throughout.
`Fc1cc(Cl)cc(O[C@H](C2CC2)[C@H]2CCNC2)c1` [Example 16-99, (S)-3-[(R)-(3-Chloro-5-fluorophenoxy)cyclopropylmethyl]pyrrolidine]: the IC50 was no more than 0.1 µM in assay [1] and no more than 0.01 µM in assay [2]. In addition, the inhibition constant (Ki) in assay [3] and in assay [4] was no more than 0.01 µM in each case.
Regarding `CC[C@@H](Oc1cc(Cl)cc(Cl)c1)[C@@H]1CCNC1` [Example 2-19, (R)-3-[(R)-1-(3,5-Dichlorophenoxy)propyl]pyrrolidine], the IC50 in assay [1] and in assay [2] was no more than 0.1 µM throughout. Also, the inhibitory constant (Ki) in assay [3] and in assay [4] was no more than 0.01 µM in each case.
Take `CCC[C@H](Oc1ccc(Cl)cc1)[C@H]1CCNC1` [Example 4-1, (S)-3-[(S)-1-(4-Chlorophenoxy)butyl]pyrrolidine]: the IC50 in assay [1] and in assay [2] was no more than 0.01 µM throughout. In addition, the Ki in assay [3] and in assay [4] was no more than 0.01 µM in each case.
In the case of `CC(C)C(Oc1ccccc1Cl)C1CCNC1` (centres unmarked) [Example 6-11, 3-[1-(2-Chlorophenoxy)-2-methylpropyl]pyrrolidine], the figures for the IC50 in assay [1] and in assay [2] were no more than 0.1 µM and no more than 0.01 µM, respectively. In addition, the Ki in assay [3] and in assay [4] was no more than 0.01 µM each time.
Take `COc1ccc(F)cc1O[C@@H](CC(C)C)[C@H]1CCNC1` [Example 10-50, (S)-3-[(S)-1-(5-Fluoro-2-methoxyphenoxy)-3-methylbutyl]pyrrolidine]: the IC50 is no more than 0.1 µM in assay [1] and no more than 0.01 µM in assay [2]. Also, the Ki in assay [3] and in assay [4] was no more than 0.01 µM in each case.
Consider `Fc1cccc(O[C@H](C2CC2)[C@H]2CCNC2)c1Cl` [Example 16-10, (S)-3-[(R)-(2-Chloro-3-fluorophenoxy)cyclopropylmethyl]pyrrolidine], for which the IC50 in assay [1] and in assay [2] was no more than 0.1 µM throughout. Further, the inhibitory constant (Ki) in assay [3] and in assay [4] was no more than 0.01 µM in each case.
Turning to `Fc1cccc(O[C@@H](C2CC2)[C@H]2CCNC2)c1Cl` [Example 16-9, (S)-3-[(S)-(2-Chloro-3-fluorophenoxy)cyclopropylmethyl]pyrrolidine], the IC50 in assay [1] is no more than 0.1 µM; in assay [2], no more than 0.01 µM. Moreover, the Ki in assay [3] and in assay [4] was no more than 0.01 µM throughout.
In the case of `C#CC(Oc1c(Cl)ccc(Cl)c1Cl)[C@H]1CCNC1` (stereo partly drawn) [Example 26, (S)-3-[1(2,3,6-Trichlorophenoxy)prop-2-ynyl]pyrrolidine], the values for the IC50 in assay [1] and in assay [2] were no more than 0.1 µM and no more than 0.01 µM, respectively. In addition, the Ki in assay [3] and in assay [4] was no more than 0.01 µM each time.
`CCC[C@H](Oc1c(F)ccc(OC)c1Cl)[C@H]1CCNC1` [Example 4-43, (S)-3-[(S)-1-(2-Chloro-6-fluoro-3-methoxyphenoxy)butyl]pyrrolidine]: the IC50 in assay [1] and in assay [2] was no more than 0.01 µM in each case. The inhibition constant Ki in assay [3] and in assay [4] was no more than 0.01 µM throughout.
Regarding `CC(C)CC(Oc1c(F)ccc(F)c1Cl)C1CCNC1` (centres unmarked) [Example 10-62, 3-[1-(2-Chloro-3,6-difluorophenoxy)-3-methylbutyl]pyrrolidine], the IC50 in assay [1] and in assay [2] was no more than 0.01 µM throughout. Besides, the inhibitory constant (Ki) in assay [3] and in assay [4] was no more than 0.01 µM in each case.
For `CC(C)C[C@H](Oc1c(Cl)ccc(Cl)c1F)[C@H]1CCNC1` [Example 10-69, (S)-3-[(S)-1-(3,6-Dichloro-2-fluorophenoxy)-3-methylbutyl]pyrrolidine], the IC50 in assay [1] and in assay [2] was no more than 0.01 µM throughout. Also, the Ki in assay [3] and in assay [4] was no more than 0.01 µM throughout.
Take `Fc1ccc(O[C@@H](C2CC2)[C@H]2CCNC2)cc1Cl` [Example 16-89, (S)-3-[(S)-(3-Chloro-4-fluorophenoxy)cyclopropylmethyl]pyrrolidine]: the IC50 in assay [1] and in assay [2] was no more than 0.1 µM throughout. The Ki in assay [3] and in assay [4] was no more than 0.01 µM each time.
On to `CC[C@@H](Oc1cccc(Cl)c1Cl)[C@@H]1CCNC1` [Example 2-29, (R)-3-[(R)-1-(2,3-Dichlorophenoxy)propyl]pyrrolidine], for which the IC50 in assay [1] and in assay [2] was no more than 0.01 µM each time. Moreover, the inhibition constant Ki in assay [3] and in assay [4] was no more than 0.01 µM throughout.
With `Fc1cc(Cl)cc(F)c1O[C@@H](C1CC1)[C@H]1CCNC1` [Example 16-79, (S)-3-[(S)-(4-Chloro-2,6-difluorophenoxy)cyclopropylmethyl]pyrrolidine], the IC50 in assay [1] and in assay [2] was no more than 0.01 µM each time. Also, the Ki in assay [3] and in assay [4] was no more than 0.01 µM each time.
For `CC(C)[C@@H](Oc1cccc(F)c1Cl)[C@H]1CCNC1` [Example 6-19, (S)-3-[(R)-1-(2-Chloro-3-fluorophenoxy)-2-methylpropyl]pyrrolidine], the IC50 in assay [1] was no more than 0.01 µM; in assay [2] it was no more than 0.1 µM. Also, the Ki is no more than 0.1 µM in assay [3] and no more than 0.01 µM in assay [4].
As for `CC(C)CC(Oc1cccc(C(F)(F)F)c1)C1CCNC1` (centres unmarked) [Example 10-7, 3-[3-Methyl-1-(3-trifluoromethylphenoxy)butyl]pyrrolidine], the IC50 in assay [1] and in assay [2] was no more than 0.1 µM throughout. Further, the Ki in assay [3] was no more than 0.1 µM; in assay [4], no more than 0.01 µM.
As for `Clc1ccc(Cl)c(O[C@@H](C2CC2)[C@H]2CCNC2)c1Cl` [Example 16-58, (S)-3-[(S)cyclopropyl-(2,3,6-trichlorophenoxy)methyl]pyrrolidine], the IC50 in assay [1] is no more than 0.1 µM; in assay [2] it was no more than 0.01 µM. In addition, the inhibition constant Ki in assay [3] and in assay [4] was no more than 0.01 µM throughout.
As to `Clc1cc(Cl)cc(O[C@@H](C2CC2)[C@H]2CCNC2)c1` [Example 16-96, (S)-3-[(S)cyclopropyl-(3,5-dichlorophenoxy)methyl]pyrrolidine], the IC50 in assay [1] and in assay [2] was no more than 0.01 µM in each case. For the same molecule, the inhibitory constant (Ki) in assay [3] and in assay [4] was no more than 0.01 µM throughout.
Consider `CC[C@H](Oc1cccc(Cl)c1)[C@H]1CCNC1` [Example 2-1, (S)-3-[(S)-1-(3-Chlorophenoxy)propyl]pyrrolidine], for which the IC50 in assay [1] is no more than 0.1 µM; in assay [2], no more than 0.01 µM. In addition, the Ki was no more than 0.01 µM in assay [3] and no more than 0.1 µM in assay [4].
`CC[C@H](Oc1ccc(Cl)cc1C)[C@H]1CCNC1` [Example 2-58, (S)-3-[(S)-1-(4-Chloro-2-methylphenoxy)propyl]pyrrolidine]: the IC50 in assay [1] and in assay [2] was no more than 0.01 µM each time. The inhibition constant Ki in assay [3] and in assay [4] was no more than 0.01 µM throughout.
In the case of `CC(C)[C@H](Oc1ccc(Cl)c(Cl)c1F)[C@H]1CCNC1` [Example 6-7, (S)-3-[(S)-1-(3,4-Dichloro-2-fluorophenoxy)-2-methylpropyl]pyrrolidine], the IC50 in assay [1] and in assay [2] was no more than 0.01 µM throughout. For the same molecule, the Ki in assay [3] and in assay [4] was no more than 0.01 µM in each case.
In the case of `CC[C@@H](Oc1c(F)ccc(F)c1Cl)[C@H]1CCNC1` [Example 2-41, (S)-3-[(R)-1-(2-Chloro-3,6-difluorophenoxy)propyl]pyrrolidine], the IC50 was no more than 0.1 µM in assay [1] and no more than 0.01 µM in assay [2]. Also, the inhibitory constant (Ki) in assay [3] and in assay [4] was no more than 0.01 µM in each case.
As for `CC(C)[C@H](Oc1c(Cl)ccc(Cl)c1Cl)[C@H]1CCNC1` [Example 6-35, (S)-3-[(S)-2-Methyl-1-(2,3,6-trichlorophenoxy)-propyl]-pyrrolidine], the IC50 in assay [1] and in assay [2] was no more than 0.01 µM throughout. The Ki in assay [3] and in assay [4] was no more than 0.01 µM in each case.
On to `CC(C)[C@H](Oc1cccc(F)c1Cl)[C@H]1CCNC1` [Example 6-17, (S)-3-[(S)-1-(2-Chloro-3-fluorophenoxy)-2-methylpropyl]pyrrolidine], for which the IC50 in assay [1] and in assay [2] was no more than 0.01 µM each time. The Ki in assay [3] and in assay [4] was no more than 0.01 µM throughout.
For `CC[C@H](Oc1ccc(Cl)cc1C(F)(F)F)[C@H]1CCNC1` [Example 2-75, (S)-3-[(S)-1-(4-Chloro-2-trifluoromethylphenoxy)propyl]pyrrolidine], the IC50 in assay [1] is no more than 0.1 µM; in assay [2] it was no more than 0.01 µM. In addition, the Ki in assay [3] and in assay [4] was no more than 0.01 µM each time.
Turning to `Fc1cc(Cl)cc(Cl)c1O[C@H](C1CC1)[C@H]1CCNC1` [Example 16-76, (S)-3-[(R)cyclopropyl-(2,4-dichloro-6-fluorophenoxy)methyl]pyrrolidine], the IC50 in assay [1] and in assay [2] was no more than 0.01 µM throughout. The inhibition constant (Ki) in assay [3] and in assay [4] was no more than 0.01 µM throughout.
`CC(C)[C@H](Oc1ccc(Cl)c(F)c1)[C@H]1CCNC1` [Example 6-56, (S)-3-[(S)-1-(4-Chloro-3-fluorophenoxy)-2-methylpropyl]pyrrolidine]: the IC50 in assay [1] and in assay [2] was no more than 0.01 µM in each case. In addition, the inhibition constant Ki in assay [3] and in assay [4] was no more than 0.01 µM each time.

As usually defined, the Ki is a dissociation constant, usually derived from enzyme kinetics or from competition with a known ligand. A high value points to lower affinity.
